Laboratory results as given in patent publication US11021493B2, “1,4-thiazine dioxide and 1,2,4-thiadiazine dioxide derivatives as beta-secretase inhibitors and methods of use” (AMGEN INC., priority 2016, dated 2021).

Experiments:
Cathepsin D (CatD) = Cathepsin D (CatD) (Homo sapiens (Human), UniProt P07339); assay: In vitro enzymatic Cathepsin D (CatD) FRET assay; type: biochemical; settings: read-out: Cat D Enzyme IC50
BACE1 [1] = biological target: T1, BACE1 (Homo sapiens (Human), UniProt P56817); assay: In vitro enzymatic BACE1 FRET assay; type: biochemical; settings: read-out: BACE1 Enzyme IC50
Target sequence in this assay (P56817 46-501): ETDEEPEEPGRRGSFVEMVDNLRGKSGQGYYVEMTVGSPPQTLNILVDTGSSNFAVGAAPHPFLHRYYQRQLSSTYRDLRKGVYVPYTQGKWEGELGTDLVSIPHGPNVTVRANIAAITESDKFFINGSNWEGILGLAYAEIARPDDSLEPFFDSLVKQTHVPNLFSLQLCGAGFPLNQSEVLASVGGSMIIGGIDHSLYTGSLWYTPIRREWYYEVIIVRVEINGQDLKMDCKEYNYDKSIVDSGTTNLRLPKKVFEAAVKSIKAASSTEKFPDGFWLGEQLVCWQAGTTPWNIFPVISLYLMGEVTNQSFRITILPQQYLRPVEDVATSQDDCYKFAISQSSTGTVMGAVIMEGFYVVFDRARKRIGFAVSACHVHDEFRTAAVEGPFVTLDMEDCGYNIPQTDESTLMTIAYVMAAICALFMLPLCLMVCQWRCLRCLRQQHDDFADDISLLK

BACE1 [2] = biological target: T1, BACE1; assay: In vitro BACE1 cell-based assay (Aβ40 in conditioned medium of cells stably expressing APP, HTRF); settings: Aβ40 in conditioned media after 24 h incubation
Target sequence in this assay (P56817 46-501, species assumed): as the sequence (P56817 46-501) above

human recombinant BACE2 = human recombinant BACE2 (Homo sapiens (Human), UniProt Q9Y5Z0); assay: In vitro enzymatic BACE2 FRET assay; type: biochemical; settings: read-out: BACE2 Enzyme IC50
Chain of human recombinant BACE2 (Q9Y5Z0 63-518): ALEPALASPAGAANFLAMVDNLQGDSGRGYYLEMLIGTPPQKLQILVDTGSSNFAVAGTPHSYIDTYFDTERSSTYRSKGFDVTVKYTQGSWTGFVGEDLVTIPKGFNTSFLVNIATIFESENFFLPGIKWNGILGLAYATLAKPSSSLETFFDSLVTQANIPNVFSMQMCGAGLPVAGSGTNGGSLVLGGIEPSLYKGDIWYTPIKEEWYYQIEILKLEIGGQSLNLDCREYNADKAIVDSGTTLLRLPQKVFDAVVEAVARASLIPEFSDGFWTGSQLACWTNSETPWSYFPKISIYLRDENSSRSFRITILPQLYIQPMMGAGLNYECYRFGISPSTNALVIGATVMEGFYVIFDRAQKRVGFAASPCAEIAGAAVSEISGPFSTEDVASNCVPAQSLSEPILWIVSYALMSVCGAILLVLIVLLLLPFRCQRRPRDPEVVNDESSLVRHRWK

Chain of Cathepsin D (CatD) (P07339 65-412, species assumed): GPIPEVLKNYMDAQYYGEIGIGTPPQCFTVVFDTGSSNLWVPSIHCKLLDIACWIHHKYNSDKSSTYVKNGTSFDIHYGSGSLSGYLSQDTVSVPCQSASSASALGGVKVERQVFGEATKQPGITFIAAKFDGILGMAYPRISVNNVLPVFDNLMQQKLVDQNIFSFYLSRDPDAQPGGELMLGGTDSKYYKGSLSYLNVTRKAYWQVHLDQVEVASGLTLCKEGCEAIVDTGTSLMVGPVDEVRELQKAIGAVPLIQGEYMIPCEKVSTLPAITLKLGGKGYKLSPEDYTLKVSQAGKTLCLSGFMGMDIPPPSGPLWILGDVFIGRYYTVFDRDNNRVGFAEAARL

| SMILES | IC50 (Cathepsin D (CatD)) [µM] | IC50 (BACE1 [1]) [nM] | IC50 (BACE1 [2]) [nM] | IC50 (human recombinant BACE2) [nM] |
| --- | --- | --- | --- | --- |
| Cc1noc(COc2cnc(/C(F)=C/c3ccc(F)c([C@]4(C)CS(=O)(=O)C(C)(C)C(N)=N4)c3)cn2)n1 [Example 175, (R,Z)-5-amino-3-(2-fluoro-5-(2-fluoro-2-(5-((3-methyl-1,2,4-oxadiazol-5-yl)methoxy)pyrazin-2-yl)vinyl)phenyl)-3,6,6-trimethyl-3,6-dihydro-2H-1,4-thiazine 1,1-dioxide] | 124 | 88 | 53 | 225 |
| CC1(C)C(N)=N[C@](C)(c2cc(/C=C(\F)c3ccc(C#N)cn3)ccc2F)CS1(=O)=O [Example 113, (R,Z)-6-(2-(3-(5-amino-3,6,6-trimethyl-1,1-dioxido-3,6-dihydro-2H-1,4-thiazin-3-yl)-4-fluorophenyl)-1-fluorovinyl)nicotinonitrile] | 100 | 2 | 4 | 9 |
| CN1C(N)=N[C@](C)(c2cc(/C=C(/F)c3ccc(Cl)cn3)cc(F)c2F)CS1(=O)=O [Example 151, (R,E)-3-amino-5-(5-(2-(5-chloropyridin-2-yl)-2-fluorovinyl)-2,3-difluorophenyl)-2,5-dimethyl-5,6-dihydro-2H-1,2,4-thiadiazine 1,1-dioxide] | 40.9 | 240 | 1420 | 121 |
| COC[C@H](C)Oc1cnc(/C(F)=C/c2ccc(F)c([C@@]3(C)N=C(N)[C@@]4(CF)CC[C@@H]3S4(=O)=O)c2)cn1 [Example 131, (1R,4R,5S)-2-amino-4-(2-fluoro-5-((Z)-2-fluoro-2-(5-(((S)-1-methoxypropan-2-yl)oxy)pyrazin-2-yl)vinyl)phenyl)-1-(fluoromethyl)-4-methyl-8-thia-3-azabicyclo[3.2.1]oct-2-ene 8,8-dioxide] | > 400 | 13 | 97 | 104 |
| C[C@]1(c2cc(/C=C(\F)c3cnc(OCC4CCC4)cn3)ccc2F)N=C(N)[C@@]2(CF)CC[C@@H]1S2(=O)=O [Example 132, (1R,4R,5S)-2-amino-4-(5-((Z)-2-(5-(cyclobutylmethoxy)pyrazin-2-yl)-2-fluorovinyl)-2-fluorophenyl)-1-(fluoromethyl)-4-methyl-8-thia-3-azabicyclo[3.2.1]oct-2-ene 8,8-dioxide] | > 400 | 38 | 1960 | 217 |
| CN1C(N)=N[C@](C)(c2cc(/C=C(\F)c3ccc4c(n3)OCCO4)ccc2F)CS1(=O)=O [Example 255, (5R)-5-(5-((Z)-2-(2,3-dihydro[1,4]dioxino[2,3-b]pyridin-6-yl)-2-fluoroethenyl)-2-fluorophenyl)-2,5-dimethyl-5,6-dihydro-2H-1,2,4-thiadiazin-3-amine 1,1-dioxide] | 122 | 3840 | 3020 | 458 |
| CN1C(N)=N[C@](C)(c2cc(/C=C(\F)c3cnc(OCC4COC4)cn3)ccc2F)CS1(=O)=O [Example 179, (R,Z)-3-amino-5-(2-fluoro-5-(2-fluoro-2-(5-(oxetan-3-ylmethoxy)pyrazin-2-yl)vinyl)phenyl)-2,5-dimethyl-5,6-dihydro-2H-1,2,4-thiadiazine 1,1-dioxide] | 43 | 176 | 120 | 217 |
| CC1(C)C(N)=N[C@](C)(c2cc(/C=C(\F)c3cnc(OCCn4cccn4)cn3)ccc2F)CS1(=O)=O [Example 157, (R,Z)-3-(5-(2-(5-(2-(1H-pyrazol-1-yl)ethoxy)pyrazin-2-yl)-2-fluorovinyl)-2-fluorophenyl)-5-amino-3,6,6-trimethyl-3,6-dihydro-2H-1,4-thiazine 1,1-dioxide] | 57.5 | 187 | 181 | 478 |
| CN1C(N)=N[C@](C)(c2cc(/C=C(\F)c3cc(F)c(Cl)cn3)ccc2F)CS1(=O)=O [Example 232, (R,Z)-3-amino-5-(5-(2-(5-chloro-4-fluoropyridin-2-yl)-2-fluorovinyl)-2-fluorophenyl)-2,5-dimethyl-5,6-dihydro-2H-1,2,4-thiadiazine 1,1-dioxide] | 68.8 | 7 | 29 | 2 |
| CC#CCOc1cnc(/C(F)=C/c2ccc(F)c([C@]3(CF)CS(=O)(=O)C(C)(C)C(N)=N3)c2)cn1 [Example 194, (S,Z)-5-amino-3-(5-(2-(5-(but-2-yn-1-yloxy)pyrazin-2-yl)-2-fluorovinyl)-2-fluorophenyl)-3-(fluoromethyl)-6,6-dimethyl-3,6-dihydro-2H-1,4-thiazine 1,1-dioxide] | 49.4 | 7 | 55 | 181 |
| CN1C(N)=N[C@](C)(c2cc(/C=C(\F)c3cnc(OCC(F)(F)F)cn3)ccc2F)C2(CC2)S1(=O)=O [Example 163, (8R)-8-(2-fluoro-5-((Z)-2-fluoro-2-(5-(2,2,2-trifluoroethoxy)-2-pyrazinyl)ethenyl)phenyl)-5,8-dimethyl-4-thia-5,7-diazaspiro[2.5]oct-6-en-6-amine 4,4-dioxide] | 223 | 133 | 1120 | 2880 |
| CN1C(N)=N[C@](C)(c2cc(/C=C(\F)c3cc4c(cn3)OCCO4)ccc2F)CS1(=O)=O [Example 187, (R,Z)-3-amino-5-(5-(2-(2,3-dihydro-[1,4]dioxino[2,3-c]pyridin-7-yl)-2-fluorovinyl)-2-fluorophenyl)-2,5-dimethyl-5,6-dihydro-2H-1,2,4-thiadiazine 1,1-dioxide] | 165 | 172 | 108 | 78 |
| Cc1nnc(COc2cnc(/C(F)=C/c3ccc(F)c([C@]4(C)CS(=O)(=O)C(C)(C)C(N)=N4)c3)cn2)o1 [Example 176, (R,Z)-5-amino-3-(2-fluoro-5-(2-fluoro-2-(5-((5-methyl-1,3,4-oxadiazol-2-yl)methoxy)pyrazin-2-yl)vinyl)phenyl)-3,6,6-trimethyl-3,6-dihydro-2H-1,4-thiazine 1,1-dioxide] | 148 | 111 | 56 | 409 |
| CN1C(N)=N[C@](C)(c2cc(/C=C(\F)c3ncc4c(n3)OCCO4)ccc2F)CS1(=O)=O [Example 234, (R,Z)-3-Amino-5-(5-(2-(6,7-dihydro-[1,4]dioxino[2,3-d]pyrimidin-2-yl)-2-fluorovinyl)-2-fluorophenyl)-2,5-dimethyl-5,6-dihydro-2H-1,2,4-thiadiazine 1,1-dioxide] | 107 | 392 | 99 | 554 |
| CCC#C[C@H](C)Oc1cnc(/C(F)=C/c2ccc(F)c([C@]3(C)CS(=O)(=O)C(C)(C)C(N)=N3)c2)cn1 (single isomer, unassigned) [Example 217] | 26.8 | 9 | 288 | 233 |

Other lines, results leading:

| IC50 (Cathepsin D (CatD)) [µM] | IC50 (BACE1 [1]) [nM] | IC50 (BACE1 [2]) [nM] | IC50 (human recombinant BACE2) [nM] | SMILES |
| --- | --- | --- | --- | --- |
| 79.5 | 1 | 5 | 107 | CC#C[C@H](C)Oc1cnc(/C(F)=C/c2ccc(F)c([C@]3(C)CS(=O)(=O)C(C)(C)C(N)=N3)c2)cn1 (single isomer, unassigned) [Example 208] |
| 78.2 | 51 | 218 | 315 | COC(C)COc1cnc(/C(F)=C/c2ccc(F)c([C@@]3(C)N=C(N)[C@@]4(CF)CC[C@@H]3S4(=O)=O)c2)cn1 (stereo partly drawn) [Example 136, (1R,4R,5S)-2-amino-4-(2-fluoro-5-((Z)-2-fluoro-2-(5-(2-methoxypropoxy)pyrazin-2-yl)vinyl)phenyl)-1-(fluoromethyl)-4-methyl-8-thia-3-azabicyclo[3.2.1]oct-2-ene 8,8-dioxide] |
| 13.8 | 46 | 1620 | 155 | CC1(C)C(N)=N[C@](C)(c2cc(/C=C(\F)c3cnc(OCC4CCCCC4)cn3)ccc2F)CS1(=O)=O [Example 150, (R,Z)-5-amino-3-(5-(2-(5-(cyclohexylmethoxy)pyrazin-2-yl)-2-fluorovinyl)-2-fluorophenyl)-3,6,6-trimethyl-3,6-dihydro-2H-1,4-thiazine 1,1-dioxide] |
| 102 | 22 | 27 | 192 | Cc1noc(COc2cnc(/C(F)=C/c3ccc(F)c([C@@]4(C)N=C(N)[C@@]5(CF)CC[C@@H]4S5(=O)=O)c3)cn2)n1 [Example 115, (1R,4R,5S)-2-amino-4-(2-fluoro-5-((Z)-2-fluoro-2-(5-((3-methyl-1,2,4-oxadiazazol-5-yl)methoxy)pyrazin-2-yl)vinyl)phenyl)-1-(fluoromethyl)-4-methyl-8-thia-3-azabicyclo[3.2.1]oct-2-ene 8,8-dioxide] |
| 57.5 | 26 | 38 | 6 | CN1C(N)=N[C@](C)(c2cc(/C=C(\F)c3nc(C#N)cs3)ccc2F)CS1(=O)=O [Example 267, 2-((Z)-2-(3-((5R)-3-amino-2,5-dimethyl-1,1-dioxido-5,6-dihydro-2H-1,2,4-thiadiazin-5-yl)-4-fluorophenyl)-1-fluoroethenyl)-1,3-thiazole-4-carbonitrile] |
| 55.2 | 1120 | 410 | 2360 | C[C@H]1COc2cnc(/C(F)=C/c3ccc(F)c([C@]4(C)CS(=O)(=O)N(C)C(N)=N4)c3)nc2O1 [Example 236, (R)-3-amino-5-(2-fluoro-5-((Z)-2-fluoro-2-((S)-7-methyl-6,7-dihydro-[1,4]dioxino[2,3-d]pyrimidin-2-yl)vinyl)phenyl)-2,5-dimethyl-5,6-dihydro-2H-1,2,4-thiadiazine 1,1-dioxide] |
| 69.8 | 750 | 653 | 78 | CN1C(N)=N[C@](C)(c2cc(/C=C(\F)c3cnc(C4CC4)cn3)ccc2F)CS1(=O)=O [Example 266, (R,Z)-3-amino-5-(5-(2-(5-cyclopropylpyrazin-2-yl)-2-fluorovinyl)-2-fluorophenyl)-2,5-dimethyl-5,6-dihydro-2H-1,2,4-thiadiazine 1,1-dioxide] |
